Reference: patent US12617773B2, “Azetidin-3-ylmethanol derivatives as CCR6 receptor modulators” (Idorsia Pharmaceuticals Ltd, priority 2020, dated 2026)

Each compound was assayed against T1, human CCR6 (Homo sapiens, UniProt P51684) (assay: FLIPR assay (inhibition of CCL20-induced calcium signal)). Conditions: FLIPR IC50 (nM), HEK-293 cells expressing human CCR6; mean values where determined several times.
T1 construct: expressed in transfected cells; host or cells: HEK-293
T1 sequence (P51684 1-374): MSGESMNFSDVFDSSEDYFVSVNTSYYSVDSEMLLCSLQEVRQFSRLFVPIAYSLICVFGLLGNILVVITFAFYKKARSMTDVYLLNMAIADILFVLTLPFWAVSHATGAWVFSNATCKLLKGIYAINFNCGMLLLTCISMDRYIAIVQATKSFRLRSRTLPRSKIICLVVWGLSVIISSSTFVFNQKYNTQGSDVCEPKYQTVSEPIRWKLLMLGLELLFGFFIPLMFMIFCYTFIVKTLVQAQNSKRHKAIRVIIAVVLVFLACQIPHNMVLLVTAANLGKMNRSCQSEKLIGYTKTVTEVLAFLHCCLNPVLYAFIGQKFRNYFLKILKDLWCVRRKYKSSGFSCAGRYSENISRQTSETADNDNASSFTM
Assay type: cell-based
Method in brief: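 IC50 values come from baseline-corrected peak calcium fluorescence after agonist. The agonist was CCL20 at 10 nM final, added to engineered human CCR6 HEK-293 cells following a 30-min, room-temperature, dark preincubation with serially diluted compound. Readings were taken in a fluorometric imaging plate reader.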

SMILES	IC50 [nM]
CCc1ccc([C@](O)(c2cncc(N3CC4CC(C3)O4)c2)C2(C)CN(C)C2)cc1 [Example 243]	211

Same assay, conditions: HEK-293 cells expressing human CCR6; mean values where determined several times; read-out: FLIPR IC50

IC50 [nM]	SMILES
29.7	CC(C)c1ccc([C@](O)(c2cncc(N3CCC(C)(C)C3)c2)C2(C)CN(C)C2)cc1 [Example 233]
123	CC(C)c1ccc([C@](O)(c2cncc(N3C[C@@H]4C[C@H]3CO4)c2)C2(C)CN(C)C2)cc1 [Example 234]
23.4	CC(C)c1ccc([C@](O)(c2cncc(N3CC(F)(F)OC(F)(F)C3)c2)C2(C)CN(C)C2)cc1 [Example 235]
210	COC[C@H]1CN(c2cncc([C@@](O)(c3ccc(C(C)C)cc3)C3(C)CN(C)C3)c2)CCO1 [Example 236]
217	COC[C@@H]1CN(c2cncc([C@@](O)(c3ccc(C(C)C)cc3)C3(C)CN(C)C3)c2)CCO1 [Example 237]
22.4	CC(C)c1ccc([C@](O)(c2cncc(N3CCC(C(F)(F)F)C3)c2)C2(C)CN(C)C2)cc1 (stereo partly shown) [Example 238]
283	CC(C)c1ccc([C@](O)(c2cncc(N3C[C@H]4C[C@@H]3CO4)c2)C2(C)CN(C)C2)cc1 [Example 239]
82.9	CC(C)c1ccc([C@](O)(c2cncc(N3C[C@H]4CC[C@@H](C3)O4)c2)C2(C)CN(C)C2)cc1 [Example 240]
128	CN1CC(C)([C@](O)(c2ccc(C3(C(F)(F)F)CC3)cc2)c2cncc(N3C[C@@H]4C[C@H]3CO4)c2)C1 [Example 241]
22.1	CCc1ccc([C@](O)(c2cncc(N3CCCC3)c2)C2(C)CN(C)C2)cc1 [Example 242]
274	CCc1ccc([C@](O)(c2cncc(N3C[C@@H]4C[C@H]3CO4)c2)C2(C)CN(C)C2)cc1 [Example 244]
26	CC(C)c1ccc([C@](O)(c2cncc(OCc3ccccc3)c2)C2(C)CN(C)C2)cc1 [Example 245, (R)-(5-Benzyloxy-pyridin-3-yl)-(1,3-dimethyl-azetidin-3-yl)-(4-isopropyl-phenyl)-methanol]
33.3	CC(C)c1ccc(C(O)(c2cncc(OCCc3ccccn3)c2)C2(C)CN(C)C2)cc1 (stereo not shown) [Example 246, (1,3-Dimethyl-azetidin-3-yl)-(4-isopropyl-phenyl)-[5-(2-pyridin-2-yl-ethoxy)-pyridin-3-yl]-methanol]
250	COCCOc1cncc(C(O)(c2ccc(C(C)C)cc2)C2(C)CN(C)C2)c1 (stereo not shown) [Example 247]
247	CC(C)c1ccc(C(O)(c2cncc(OCC3COC3)c2)C2(C)CN(C)C2)cc1 (stereo not shown) [Example 248]
78.4	CC(C)c1ccc([C@](O)(c2cncc(OCCCO)c2)C2(C)CN(C)C2)cc1 [Example 249]
10.9	CC(C)Oc1cncc([C@@](O)(c2ccc(C(C)C)cc2)C2(C)CN(C)C2)c1 [Example 250]
8.25	CC(C)c1ccc([C@](O)(c2cncc(OC3CCCCC3)c2)C2(C)CN(C)C2)cc1 [Example 251]
238	CC(C)c1ccc([C@](O)(c2cncc(OCC(C)(C)O)c2)C2(C)CN(C)C2)cc1 [Example 252]
13.1	COC1CCC(Oc2cncc([C@@](O)(c3ccc(C(C)C)cc3)C3(C)CN(C)C3)c2)C1 (stereo partly shown) [Example 253]

IC50 [nM]	SMILES
19.3	CC(C)c1ccc([C@](O)(c2cncc(OCc3nc(C4CC4)no3)c2)C2(C)CN(C)C2)cc1 [Example 254]
774	Cc1nc(C)n(CCOc2cncc([C@@](O)(c3ccc(C(C)C)cc3)C3(C)CN(C)C3)c2)n1 [Example 255]
57.8	CC(C)c1ccc([C@](O)(c2cncc(OCCC(C)(C)O)c2)C2(C)CN(C)C2)cc1 [Example 256]
87.4	COc1cncc([C@@](O)(c2ccc(C(C)C)cc2)C2(C)CN(C)C2)c1 [Example 257]
15.5	CC(C)c1ccc([C@](O)(c2cncc(OCCOCc3ccccc3)c2)C2(C)CN(C)C2)cc1 [Example 258]
56.7	CC(C)c1ccc([C@](O)(c2cncc(OC3CCOCC3)c2)C2(C)CN(C)C2)cc1 [Example 259]
324	CC(C)c1ccc([C@](O)(c2cncc(OCCO)c2)C2(C)CN(C)C2)cc1 [Example 260, 2-{5-[(R)-(1,3-Dimethyl-azetidin-3-yl)-hydroxy-(4-isopropyl-phenyl)-methyl]-pyridin-3-yloxy}-ethanol]
206	CC(C)c1ccc([C@](O)(c2cncc(OC3CCC(O)CC3)c2)C2(C)CN(C)C2)cc1 (stereo partly drawn) [Example 261, 4-{5-[(R)-(1,3-Dimethyl-azetidin-3-yl)-hydroxy-(4-isopropyl-phenyl)-methyl]-pyridin-3-yloxy}-cyclohexanol]
72.6	CC(C)c1ccc([C@](O)(c2cncc(OC3CCC(C)(O)CC3)c2)C2(C)CN(C)C2)cc1 (stereo partly drawn) [Example 262, 4-{5-[(R)-(1,3-Dimethyl-azetidin-3-yl)-hydroxy-(4-isopropyl-phenyl)-methyl]-pyridin-3-yloxy}-1-methyl-cyclohexanol]
162	CN1CC(C)(C(O)(c2ccc(OC(F)(F)F)cc2)c2cnc(Oc3ccccc3)nc2)C1 (stereo not shown) [Example 263]
167	CN1CC(C)(C(O)(c2ccc(OC(F)(F)F)cc2)c2ccc(OCc3ccccc3)nc2)C1 (stereo not shown) [Example 264]
90.6	CN1CC(C)(C(O)(c2ccc(OC(F)(F)F)cc2)c2cncc(-n3cccn3)c2)C1 (stereo not shown) [Example 265]
79.1	CN1CC(C)(C(O)(c2ccc(OC(F)(F)F)cc2)c2cnc(F)c(N3CCCC3)c2)C1 (stereo not shown) [Example 266, (1,3-Dimethyl-azetidin-3-yl)-(6-fluoro-5-pyrrolidin-1-yl-pyridin-3-yl)-(4-trifluoromethoxy-phenyl)-methanol]
103	CN1CC(C)(C(O)(c2ccc(OC(F)(F)F)cc2)c2cnc(C#N)c(N3CCCC3)c2)C1 (stereo not shown) [Example 267, 5-[(1,3-Dimethyl-azetidin-3-yl)-hydroxy-(4-trifluoromethoxy-phenyl)-methyl]-3-pyrrolidin-1-yl-pyridine-2-carbonitrile]
99.3	CN1CC(C)(C(O)(c2ccc(OC(F)(F)F)cc2)c2ccc(OC3CCOCC3)nc2)C1 (stereo not shown) [Example 268, (1,3-Dimethyl-azetidin-3-yl)-[6-(tetrahydro-pyran-4-yloxy)-pyridin-3-yl]-(4-trifluoromethoxy-phenyl)-methanol]
224	CN1CC(C)(C(O)(c2ccc(OC(F)(F)F)cc2)c2ccc(OCC3COC3)nc2)C1 (stereo not shown) [Example 269, (1,3-Dimethyl-azetidin-3-yl)-[6-(oxetan-3-ylmethoxy)-pyridin-3-yl]-(4-trifluoromethoxy-phenyl)-methanol]
27.4	Cc1csc(-c2cncc(C(O)(c3ccc(C(C)C)cc3)C3(C)CN(C)C3)c2)n1 (stereo not shown) [Example 270, (1,3-Dimethyl-azetidin-3-yl)-(4-isopropyl-phenyl)-[5-(4-methyl-thiazol-2-yl)-pyridin-3-yl]-methanol]
36.5	Cc1cnc(-c2cncc(C(O)(c3ccc(C(C)C)cc3)C3(C)CN(C)C3)c2)s1 (stereo not shown) [Example 271, (1,3-Dimethyl-azetidin-3-yl)-(4-isopropyl-phenyl)-[5-(5-methyl-thiazol-2-yl)-pyridin-3-yl]-methanol]
485	COc1ncc(C(O)(c2ccc(C(C)C)cc2)C2(C)CN(C)C2)cn1 (stereo not shown) [Example 272, (1,3-Dimethyl-azetidin-3-yl)-(4-isopropyl-phenyl)-(2-methoxy-pyrimidin-5-yl)-methanol]
